Measured values: a melting point compilation (Tetko et al.)

| Structure (SMILES) | melting point |
| --- | --- |
| CCOc1ccc(C(=O)NCC(=O)O)cc1OCC | 119 to 122 °C |
| Cc1nnc(NN)[nH]c1=O | 237 to 239 °C |
| CCSc1ccc(C(=O)O)cn1 | 123 to 125 °C |
| CC(C)(C)Sc1ccc(C#N)nc1 | 60 to 62 °C |
| CN1CCN(c2ccc(CO)cc2F)CC1 | 87 to 89 °C |
| O=C(O)c1cc(-c2cccc(Cl)c2)no1 | 182 to 184 °C |
| O=Cc1cnc(-c2ccccn2)s1 | 149 to 151 °C |
| CNC(=O)C1Cc2ccccc2CN1 (stereo not drawn) | 97 to 99 °C |
| CC1(C2CC2)NC(=O)NC1=O (stereo not drawn) | 168 to 170 °C |
| O=C(O)Cn1c(-c2cccc(Cl)c2Cl)nc2ccccc21 | 235 to 237 °C |
| CC(C)CC1CC(C(=O)O)CC(=O)N1 (stereo not drawn) | 188 to 190 °C |
| Cc1noc(N)c1C(=O)O | 150 to 154 °C |
| COc1ccc(-c2n[nH]c(=O)c3ccccc23)cc1 | 238 to 240 °C |
| CCc1cc2c(=O)[nH]c(N3CCCC3)nc2s1 | 253 to 255 °C |
| Cc1ccc2c(C)cc(Cl)nc2c1 | 49 to 51 °C |
| Cc1n[nH]cc1C(=O)NN | 199 to 201 °C |
| CCOC(=O)Cc1cccc(C#N)c1 | 47 to 49 °C |
| COc1cc(/C(C)=N\O)ccc1OCc1ccccc1 | 117 to 119 °C |
| c1nnc(C2CCCNC2)[nH]1 (stereo not drawn) | 149 to 151 °C |
| CC(Oc1ccc(Br)cc1F)C(=O)O (stereo not drawn) | 113 to 115 °C |
| COc1cccc(C(N)(C(=O)O)C(F)(F)F)c1 (stereo not drawn) | 139 to 141 °C |
| O=C(O)c1cc([N+](=O)[O-])ccc1SCCO | 163 to 165 °C |
| NCc1nnc2n1CCCC2C(F)(F)F (stereo not drawn) | 81 to 83 °C |
| CN1CCN(S(=O)(=O)c2cccc(N)c2)CC1 | 140 to 142 °C |
| COc1cc2c(cc1OC)CN(Cc1ccccc1N)CC2 | 149 to 151 °C |

| Structure (SMILES) | melting point |
| --- | --- |
| CC(C)(C)OC(=O)NCc1ccc(C(=O)O)o1 | 131 to 133 °C |
| O=C(O)c1ccc(Cl)cc1N1CCCC1=O | 218 to 220 °C |
| Nc1ccccc1NC(=O)c1ccccc1I | 189 to 191 °C |
| COc1ccc(C(=O)NCC(=O)O)cc1 | 165 to 167 °C |
| O=C(O)c1ccc(S(=O)(=O)N2CCOCC2)cc1 | 287 to 289 °C |
| NC(=O)CCOc1cccc(F)c1 | 94 to 96 °C |
| O=C(O)/C(=C\c1ccccc1)c1cccs1 | 169 to 171 °C |
| Cc1c(C(=O)O)nnn1-c1cccc(Cl)c1 | 179 to 181 °C |
| CC(=O)c1cccc(NC(=O)C(C)Cl)c1 (stereo not drawn) | 111 to 113 °C |
| O=S(=O)(Cl)c1ccc(Cl)c2c(Cl)cccc12 | 115 to 117 °C |
| O=C(O)c1ccc(F)c(S(=O)(=O)NC2CC2)c1 | 226 to 228 °C |
| Cc1c(C)c(C)c(S)c(C)c1C | 62 to 64 °C |
| Cc1ccc2nc(NCc3ccccc3)sc2c1 | 175 to 177 °C |
| COC(=O)C(O)c1cccc(O)c1 (stereo not drawn) | 124 to 126 °C |
| Cc1occc1-c1nnc(S)n1-c1ccccc1 | 234 to 236 °C |
| Cc1ccccc1-n1c(C)nnc1S | 201 to 203 °C |
| NCCCc1nc(C2CC2)n[nH]1 | 207 to 209 °C |
| N=C(N)Nc1nc2ccccc2o1 | 179 to 181 °C |
| NC(=O)NC(=O)OCCCl | 185 to 187 °C |
| COC(=O)c1nsnc1C(=O)O | 82 to 84 °C |
| Clc1nc(-c2cccnc2)nc2sc3c(c12)CCCC3 | 137 to 139 °C |
| CC(CO)Nc1nc2ccccc2[nH]1 (stereo not drawn) | 174 to 176 °C |
| CC1(C)CNCCS1(=O)=O | 46 to 48 °C |
| Cn1ncc(Br)c(Br)c1=O | 114 to 116 °C |
| CC(C)CNC(=O)C(C)Cl (stereo not drawn) | 37 to 39 °C |

| Structure (SMILES) | melting point |
| --- | --- |
| Nc1ccc(Oc2ccc(F)cc2)cn1 | 74 to 76 °C |
| COC(=O)CCCc1nnc(N)s1 | 149 to 151 °C |
| SC1=Nc2ccccc2CS1 | 149 to 151 °C |
| Cc1ccc(C(=O)c2ccccc2Cl)cc1 | 90 to 92 °C |
| CC(CS(C)(=O)=O)NC1CC1 (stereo not drawn) | 39 to 41 °C |
| COc1ccc(NC(=O)Cn2cc(N)cn2)cc1 | 151 to 153 °C |
| CC(C)c1nnc(S)n1C1CC1 | 146 to 148 °C |
| Cn1c(CC(N)=NO)nc2ccccc21 | 240 to 242 °C |
| N#CCc1nc2scc(C3CC3)c2c(=O)[nH]1 | 284 to 286 °C |
| O=C(CCCl)Nc1ccc(F)cc1 | 109 to 111 °C |
| Cn1[nH]c2c(c1=N)CCC2 | 134 to 136 °C |
| NN=C1C(=O)Nc2c(Cl)cc(Cl)cc21 | 261 to 263 °C |
| Nc1cc(-c2ccsc2)n[nH]1 | 127 to 129 °C |
| Cc1ccc(N2CCC(N)C2=O)cc1 (stereo not drawn) | 97 to 99 °C |
| O=C(O)c1cn(Cc2ccccc2)nc1-c1cccs1 | 131 to 133 °C |
| Cc1c(Br)cc(S(=O)(=O)Cl)cc1C(=O)O | 167 to 169 °C |
| CC(NC(=O)OC(C)(C)C)c1ccc(-c2cccc(C#N)c2)cc1 (stereo not drawn) | 103 to 105 °C |
| CN(CC(N)=S)C(=O)OC(C)(C)C | 149 to 151 °C |
| Cc1ccc(C=CC(=O)O)nc1 | 163 to 165 °C |
| CC(=O)NC(CC(N)=O)C(=O)O (stereo not drawn) | 168 to 170 °C |
| CCCCNC(=O)CC(N)=NO | 95 to 99 °C |
| O=C1OC(C(O)CO)C(O)=C1O (stereo not drawn) | 192 to 196 °C |
| O=C(Cl)c1cc(Cl)nc2ccccc12 | 85 to 87 °C |
